Test results taken from patent US20110124745A1, “Switchable Anionic Surfactants and Methods of Making and Using Same” (priority 2009, published 2011).
Where “and” joins values, the source holds several entries; their conditions need not be identical. Identical values can stand only once.

Key:
Type in all cases: physicochemical
[1] = Surface tension studies (tensiometer measurements)
Protocol: A stock solution of compound (1A) was prepared by combining 0.460 g (1.559 mmol) of octyl 4-hydroxy-3-nitrobenzoate (1N) and 1.36 g (12.83 mmol) of Na2CO3 in 160 mL of deionized H2O. The resultant solution was homogenized by sonication for 2 min using a sonicating machine (model […], available from Fisher Scientific, Ottawa, Canada). 10 mL of the homogeneous solution was transferred into each of thirteen vials (13×10 mL, vial numbers: 1, 2, 2*, 3, 4, 5, 6, 7, 8, 9, 10, 11 and 12). The levels of solution in all the vials were marked using a marker pen on the outside of the vials. A stir bar was introduced in vials 2* through 12.
The solutions in each vial were turned OFF and back ON according to Table 1. […] In vials 2 and 2*, the surfactant was turned OFF. In vial 2*, following the OFF-turning, the uncapped vial contents were stirred at room temperature for 48 h.
Vials (other than vial 2*) were left at room temperature for 18 h prior to surface tension measurements. Where necessary, water was added to the vials until the total volume matched the original marked levels.
The contents of vials with even numbers (OFF) were filtered by passing them through a Kimwipe™ plug in a pipette to obtain a clear solution.
Surface tension for all solutions was measured in triplicate. The three values of surface tension for each solution remained within ±1 dynes/cm indicating good reproducibility. The tensiometer (Surface Tensiomat 21, Model 14814, available from Fischer Scientific, Ottawa, Canada) was calibrated using deionized water. The initial value of 72 dynes/cm obtained for water was acceptable within experimental error.

[2] = Switching efficiency by 1H NMR, method A ([(CH3)4N]I internal standard); details: relative to (CH3)4NI set to 100
Description: In both methods, to quantify the concentration of surfactant in solution, its ^1H NMR integration was compared to one of two internal standards of known concentration. In addition to the difference in which internal standard was used, the two methods can also be distinguished from each other on the basis of the timing of the addition of the internal standard. In method A, the standard remains in the solution during the process of switching. In method B, the switching is executed first and the DMF solution of known strength and quantity is added in to the solution.
In both methods, the surfactant was turned OFF with CO2 by positioning the needle that supplied the CO2 to the surfactant solution above the solution in such a way that the slow flow of CO2 was allowed to interact with the surfactant solution at the surface. The switching from ON to OFF required 5 min or less. Increasing the surface area, for example, by slightly tilting the vial, expedited the switching from ON to OFF. To turn the surfactant ON, the solution was stirred at 70° C. for 40 min as described above. After each ON cycle, 0.5 mL of D2O was added to the solution to compensate for the loss in the volume caused by evaporation.
The surfactant solution was prepared by combining 0.046 g of octyl 4-hydroxy-3-nitrobenzoate (1N) and 0.136 g of Na2CO3 in 16.0 mL of D2O. To this solution, 11.5 mg of [(CH3)4N]I was added. The resultant solution was homogenized by sonication for 2 min. […] Stirring bars were introduced in vials 3 to 11. […] The surfactant solutions were turned OFF and ON by the procedure described in Example 3.
As the standard, [(CH3)4N]I was added early into the surfactant solution. All the solutions were filtered and the ^1H NMR spectra of all these solutions were recorded. In all cases, the integration of [(CH3)4N]I was set to 100 and compared with the integration of aromatic proton at δ ˜7.3. […] Thus the concentration of the surfactant in these solutions was substantially zero. […] Thus the experimental results established that the surfactant turns ON and OFF with substantially 100% efficiency.

[3] = Solubility observations (aqueous solution, DMSO)
Description: The following study confirmed that compounds (1A) and (1N) reversibly convert from the neutral form (1N) to the anionic form (1A) and back to the neutral form over and over again with substantially no loss of product. The conversion was verified visually since the neutral form was not soluble in aqueous solution and appeared as a white precipitate in colourless liquid while the anionic form was fully soluble in aqueous solution and appeared as a clear yellow liquid (see FIG. 2). In addition to visual examination, ^1H NMR studies that are described below confirmed the presence of the hydroxyl proton in the spectra of the neutral form.
Since n-octyl 4-hydroxy-3-nitrobenzoate (1N) and the […] salt of (1A) are soluble in DMSO and have some characteristic signals in the ^1H NMR spectrum, […] was used as a solvent to monitor the non-aqueous switchability by NMR spectroscopy.

[4] = pH studies of ON and OFF surfactant solutions
Protocol: For pH studies described below, a pH meter (Orion 4 Star Conductivity Benchtop, available from ThermoElectron Corporation, Mass., USA) was used. The pH meter was calibrated before the measurements as per the instructions provided with the pH meter. All solutions were prepared using deionized water. All pH measurements were done at 25° C.
Surfactant solution was prepared by dissolving n-octyl 4-hydroxy-3-nitrobenzoate (0.443 g, 1.502 mmol) and anhydrous Na2CO3 (1.27 g, 12.02 mmol) in 150 mL of deionized water. The resultant solution was homogenized by sonication for 2 min. Aliquots (10.0 mL) of this solution were transferred into eleven different vials numbered as 1, 2, 3, 4, 5, 6, 7, 8, 9, 10, and 11 by Hamilton syringe. The level of the solution in each vial was marked using a marker. Stirring bars were introduced in vials 3 to 11. […] To turn the surfactant OFF, CO2 was slowly bubbled through a solution for 10 min (formation of the OFF form was observed by formation of light yellow solid precipitate). To turn the surfactant ON the solution was heated and stirred while immersed in an oil bath preset at 70° C., for 40 min. The solution in vial 2 was turned OFF. The solution in vial 3 was first turned OFF and then ON. The solution in vial 4 was first turned OFF then ON and finally OFF. After completion of the indicated cycle, each vial was first allowed to cool down to room temperature (if the cycle marked its completion with the surfactant in ON form), the solution was then diluted with deionized water. To be consistent with the previous experiments, all the vials were tightly capped (using […]™) and allowed to stand for 18 h at room temperature (see FIG. 2).

Average surface tension ([1]; 1.559 mmol (1N) + 12.83 mmol Na2CO3 in 160 mL water, vial 1, control, never switched (ON))	average value of the surface tension over the ON vials ([1]; ON form, vials 1, 3, 5, 7, 9, 11)	Average surface tension ([1]; vial 2*: turned OFF, then stirred uncapped at room temperature for 48 h)	Proton integration at ~7.3 δ ([2]; D2O with Na2CO3, vial 1, control, never switched (ON))	Proton integration at ~7.3 δ ([2]; D2O with Na2CO3, vials 3, 5, 7, 9, 11: ON/OFF cycles of Table 1 ending ON (70° C., 40 min))	solubility in aqueous solution (visual) [3]	pH when turned OFF ([4]; 0.01 M compound (1) + 0.08 M Na2CO3, after CO2 bubbling, 25° C.)	pH when turned ON ([4]; 0.01 M compound (1) + 0.08 M Na2CO3, after heating at 70° C. for 40 min, measured at 25° C.)	pH of Original stock solution (ON) ([4]; 0.01 M compound (1) neutral form + 0.08 M Na2CO3 in water, 25° C.)	average pH value of the solution in ON form ([4]; ON form after cycling)	pH of the solution ([4]; vial 1, control, never switched (ON), 1.502 mmol (1N) + 12.02 mmol Na2CO3 in 150 mL water)	pH of the solution ([4]; vials 3, 5, 7, 9, 11: cycles of Table 1 ending ON)	average value of the surface tension over the OFF vials ([1]; OFF form, vials 2, 4, 6, 8, 10, 12)	Proton integration at ~7.3 δ ([2]; filtered D2O solution, vials 2, 4, 6, 8, 10: cycles of Table 1 ending OFF (CO2))	solubility in DMSO [3]	average pH value of the solutions in the OFF form ([4]; OFF form)	pH of the solution ([4]; vials 2, 4, 6, 8, 10: cycles of Table 1 ending OFF)	Structure (SMILES)
35 dynes/cm	34 dynes/cm	35 dynes/cm	24	23 and 24 and 22 and 20	fully soluble	8.02	8.78	10.87	9.31	10.85	9.26 and 9.24 and 9.22 and 9.44 and 9.38	–	–	–	–	–	CCCCCCCCOC(=O)c1ccc(O)c([N+](=O)[O-])c1 [compound (1A), 2-nitro-4-(octyloxycarbonyl)phenolate]
–	–	–	–	–	–	–	–	–	–	–	–	61 dynes/cm	0	soluble	7.73	7.88 and 7.70 and 7.89 and 7.35 and 7.83	CCCCCCCCOC(=O)c1ccc(O)c([N+](=O)[O-])c1 [compound (1N), octyl 4-hydroxy-3-nitrobenzoate]
